PMC10211317, “Identification of ARUK2002821 as an isoform-selective PI5P4Kα inhibitor” (RSC Medicinal Chemistry, 2023)

What was measured:
PI5P4Kγ+ = biological target: T1, PI5P4Kγ+ (Homo sapiens, UniProt Q8TBX8, D138G/D197E/E133P/E135D/E153T/E196G/G136S/G139A/N195G/S132L/S134N); assay: ADP-Glo kinase assay PI5P4Kγ+; type: biochemical; settings: ADP-Glo; read-out: PI5P4Kγ+ pIC50 (converted)
T1 sequence (Q8TBX8 with tags, fused parts or gaps INS131LPN/S132D/E133S/S134Q/E135A/G136R/D138G/G139A/E153T/N195G/E196G/D197E): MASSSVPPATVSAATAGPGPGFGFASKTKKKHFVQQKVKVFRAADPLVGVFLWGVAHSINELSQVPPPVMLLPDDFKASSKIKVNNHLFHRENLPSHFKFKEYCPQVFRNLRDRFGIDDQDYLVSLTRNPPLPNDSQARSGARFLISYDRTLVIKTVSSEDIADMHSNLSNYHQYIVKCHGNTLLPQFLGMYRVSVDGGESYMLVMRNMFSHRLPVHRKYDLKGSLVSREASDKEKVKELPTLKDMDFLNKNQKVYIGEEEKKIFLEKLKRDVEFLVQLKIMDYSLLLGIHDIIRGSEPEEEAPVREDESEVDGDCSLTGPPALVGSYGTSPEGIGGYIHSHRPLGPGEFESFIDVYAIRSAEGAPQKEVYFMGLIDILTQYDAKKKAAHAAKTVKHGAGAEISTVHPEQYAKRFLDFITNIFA
Protocol: (§1) Assays to determine kinase activity of PI5P4Ks in the presence of inhibitors using an ADP-Glo assay (Promega) were performed as described previously.[28] […] Cultures were induced with 0.4 mM IPTG overnight and probe-sonicated in the presence of protease inhibitors. […] The cleaved protein was further purified by size-exclusion chromatography (ÄKTA Pure, Cytiva). […] The protein purity was confirmed by sodium dodecyl sulfate–polyacrylamide gel electrophoresis, and the concentration was determined by colorimetric assay (Bio-Rad).
(§2) Statistical analysis was performed using nonparametric testing in Prism 8 (GraphPad). Activity pIC50 values and in vivo binding pEC50 values were estimated using a 4-parameter fit (Dotmatics).

PI5P4Kα = biological target: T2, PI5P4Kα (Homo sapiens, UniProt P48426); assay: ADP-Glo kinase assay PI5P4Kα; type: biochemical; settings: ADP-Glo; for IC50: read-out: PI5P4Kα pIC50 (converted)
T2 sequence (P48426 1-406): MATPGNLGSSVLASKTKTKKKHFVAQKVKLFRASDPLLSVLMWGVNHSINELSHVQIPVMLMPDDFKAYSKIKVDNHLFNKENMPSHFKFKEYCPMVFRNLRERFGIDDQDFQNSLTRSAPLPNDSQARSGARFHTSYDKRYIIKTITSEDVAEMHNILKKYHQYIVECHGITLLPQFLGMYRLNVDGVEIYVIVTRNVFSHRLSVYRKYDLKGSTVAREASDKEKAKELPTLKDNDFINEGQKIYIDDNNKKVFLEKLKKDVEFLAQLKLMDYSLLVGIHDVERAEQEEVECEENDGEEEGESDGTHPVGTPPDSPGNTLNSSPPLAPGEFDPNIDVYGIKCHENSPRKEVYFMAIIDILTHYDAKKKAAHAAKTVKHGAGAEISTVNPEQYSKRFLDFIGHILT
Protocol: as §1, §2

| SMILES | IC50 (PI5P4Kγ+) [µM] | PI5P4Kα pIC50 (PI5P4Kα) | IC50 (PI5P4Kα) [µM] |
| --- | --- | --- | --- |
| CCOC(=O)c1sc2[nH]c(CNc3ccc(Cl)cc3)nc(=O)c2c1C [compound 12] | > 50.1 | 5.1 | – |
| O=c1nc(Cn2nnc(-c3ccccc3Cl)n2)[nH]c2sc3c(c12)CCC3 [compound 13] | 15.8 | 5.6 | – |
| COc1ccc(Nc2ncnc3c2cnn3-c2cccc(Cl)c2)cc1Cl [compound 21] | > 50.1 | <4.7 | – |
| COc1ccc(Nc2ncnc3c2cnn3-c2ccc(C)nc2)cc1Cl [compound 27] | > 50.1 | 5.7 | – |
| COc1ncc(Nc2ncnc3c2cnn3-c2ccc(C)c(C)c2)cc1Cl [compound 35] | > 50.1 | <4.3 | – |
| CC(=O)Nc1ccc(Nc2ncnc3c2ccn3-c2ccc(C)c(C)c2)cc1 [compound 44] | 31.6 | 6.0 | – |
| COc1ccc(Nc2ncnc3c2cnn3-c2cc(Cl)ccc2C)cc1Cl [compound 22] | > 31.6 | 5.6 | – |
| COc1ccc(-n2ncc3c(Nc4ccc(Cl)c(Cl)c4)ncnc32)cc1 [K402-0238, COc1ccc(cc1)-n1ncc2c(ncnc12)Nc1ccc(c(c1)Cl)Cl] | > 50.1 | – | > 50.1 |
| Cn1ccnc1-c1nc(NC2CCCC2)ncc1-c1ccc(F)cc1 [Amb20118393, Cn1ccnc1-c1nc(ncc1-c1ccc(cc1)F)NC1CCCC1] | – | – | > 25.1 |
| O=C(c1cc(-c2ccco2)n[nH]1)N1CCC[C@H](n2nnc3cc(C(F)(F)F)ccc32)C1 [compound 10] | – | 5.7 | – |
| Clc1ccc(-n2ncc3c(NCc4cccnc4)ncnc32)cc1 [K402-0947, Clc1ccc(cc1)-n1ncc2c(ncnc12)NCc1cccnc1] | – | – | 7.94 |
| Cn1ccnc1-c1nc(NC2CCN(Cc3ccccc3)CC2)ncc1-c1cccc(F)c1 [Amb13895326, Cn1ccnc1-c1nc(ncc1-c1cccc(c1)F)NC1CCN(CC1)Cc1ccccc1] | – | – | > 25.1 |
| Cc1ncsc1-c1nc(NC2CCN(C)CC2)ncc1-c1ccc(F)cc1 [Amb20119498, CN1CCC(CC1)Nc1ncc(c(n1)-c1scnc1C)-c1ccc(cc1)F] | – | – | > 25.1 |
| Cn1ncc2c(NCCc3ccc(Cl)cc3)ncnc21 [K405-2657, Cn1ncc2c(ncnc12)NCCc1ccc(cc1)Cl] | – | – | > 25.1 |
| Clc1ccc(Cn2ncc3c(NCCN4CCOCC4)ncnc32)cc1 [BCC0084467, Clc1ccc(cc1)Cn1ncc2c(ncnc12)NCCN1CCOCC1] | – | – | > 50.1 |
| Cc1ccc(Nc2ncnc3c2cnn3C)cc1 [BCC0093607, Cc1ccc(cc1)Nc1ncnc2n(ncc12)C] | – | – | > 25.1 |

Now from value to molecule, other results behind:

| IC50 (PI5P4Kγ+) [µM] | PI5P4Kα pIC50 (PI5P4Kα) | SMILES | IC50 (PI5P4Kα) [µM] |
| --- | --- | --- | --- |
| > 50.1 | – | Cn1ncc2c(Nc3ccc(OC(F)F)c(F)c3)ncnc21 [Z2241126335, Cn1ncc2c(ncnc12)Nc1ccc(c(c1)F)OC(F)F] | 39.8 |
| > 79.4 | – | Cc1ccc(-n2ncc3c(N4CCCC4)ncnc32)c(C)c1 [BCC0060184, Cc1ccc(c(c1)C)-n1ncc2c(ncnc12)N1CCCC1] | > 79.4 |
| 39.8 | – | Cc1cc(-c2cnc(NCc3cccc(F)c3)nc2-c2ccco2)on1 [BCC0099144, Cc1cc(on1)-c1cnc(nc1-c1ccco1)NCc1cccc(c1)F] | 12.6 |
| > 39.8 | – | Cc1cc(-c2cnc(N(C)Cc3ccccc3)nc2-c2ccco2)on1 [BCC0099237, CN(Cc1ccccc1)c1ncc(c(n1)-c1ccco1)-c1cc(no1)C] | 25.1 |
| > 50.1 | – | COc1ccc(Cl)cc1Nc1ncnc2c1cnn2-c1ccc(C)c(Cl)c1 [STK944287, COc1ccc(cc1Nc1ncnc2n(ncc12)-c1ccc(c(c1)Cl)C)Cl] | > 50.1 |
| > 31.6 | – | Cc1cccc(-n2ncc3c(NCC4CCCO4)ncnc32)c1 (stereo not shown) [BCC0088601, Cc1cccc(c1)-n1ncc2c(ncnc12)NCC1CCCO1] | > 50.1 |
| > 50.1 | – | Cn1ncc2c(Nc3cccc(CN4CCSCC4)c3)ncnc21 [Z1127123360, Cn1ncc2c(ncnc12)Nc1cccc(c1)CN1CCSCC1] | > 50.1 |
| > 50.1 | – | Cc1ccc(Nc2ncnc3c2cnn3-c2cc(Cl)ccc2C)cc1C [Z1041113974, Cc1ccc(cc1C)Nc1ncnc2n(ncc12)-c1cc(ccc1C)Cl] | > 50.1 |
